Assay results as given in patent US11252963B2, “Pesticidally active pyrazole derivatives” (SYNGENTA PARTICIPATIONS AG, priority 2017, dated 2022).
Like-named read-outs stand apart in the source and are kept apart here.

Legend:
Format in all cases: in vivo
[1] = tested on: Diabrotica balteata (Corn root worm); assay: Diabrotica balteata (Corn root worm) mortality test on sprayed maize sprouts; conditions: 96 h
Protocol: Diabrotica balteata (Corn root worm):
Maize sprouts placed onto an agar layer in 24-well microtiter plates were treated with aqueous test solutions prepared from 10′000 ppm DMSO stock solutions by spraying. After drying, the plates were infested with L2 larvae (6 to 10 per well). The samples were assessed for mortality 4 days after infestation.

[2] = tested on: Euschistus heros (Neotropical Brown Stink Bug); assay: Euschistus heros (Neotropical Brown Stink Bug): feeding/contact activity; conditions: 120 h
Protocol: Euschistus heros (Neotropical Brown Stink Bug): Feeding/Contact Activity
Soybean leaves on agar in 24-well microtiter plates were sprayed with aqueous test solutions prepared from 10,000 ppm DMSO stock solutions. After drying the leaves were infested with N2 nymphs. The samples were assessed for mortality 5 days after infestation.

[3] = tested on: Myzus persicae (Green Peach Aphid); assay: Myzus persicae (Green Peach Aphid): feeding/contact activity; conditions: foliar, 144 h
Protocol: Myzus persicae (Green Peach Aphid): Feeding/Contact Activity
Sunflower leaf discs were placed onto agar in a 24-well microtiter plate and sprayed with aqueous test solutions prepared from 10,000 ppm DMSO stock solutions. After drying, the leaf discs were infested with an aphid population of mixed ages. The samples were assessed for mortality 6 days after infestation.

[4] = tested on: Plutella xylostella (Diamond Back Moth); assay: Plutella xylostella (Diamond Back Moth): feeding/contact activity; conditions: 120 h
Protocol: Plutella xylostella (Diamond Back Moth): Feeding/Contact Activity
24-well microtiter plates with artificial diet were treated with aqueous test solutions prepared from 10′000 ppm DMSO stock solutions by pipetting. After drying, the plates were infested with L2 larvae (10 to 15 per well). The samples were assessed for mortality 5 days after infestation.

[5] = tested on: Spodoptera littoralis (Egyptian Cotton Leaf Worm); assay: Spodoptera littoralis (Egyptian Cotton Leaf Worm): feeding/contact activity; conditions: foliar, 72 h
Protocol: Spodoptera littoralis (Egyptian Cotton Leaf Worm): Feeding/Contact Activity
Cotton leaf discs were placed onto agar in 24-well microtiter plates and sprayed with aqueous test solutions prepared from 10′000 ppm DMSO stock solutions. After drying the leaf discs were infested with five L1 larvae. The samples were assessed for mortality 3 days after infestation.

[6] = tested on: Tetranychus urticae (Two-Spotted Spider Mite); assay: Tetranychus urticae (Two-Spotted Spider Mite): feeding/contact activity; conditions: foliar, 192 h, read-out: mortality on mixed population (mobile stages)
Protocol: Tetranychus urticae (Two-Spotted Spider Mite): Feeding/Contact Activity
Bean leaf discs on agar in 24-well microtiter plates were sprayed with aqueous test solutions prepared from 10′000 ppm DMSO stock solutions. After drying the leaf discs were infested with a mite population of mixed ages. The samples were assessed for mortality on mixed population (mobile stages) 8 days after infestation.

[7] = tested on: Thrips tabaci (Onion Thrips); assay: Thrips tabaci (Onion Thrips): feeding/contact activity; conditions: foliar, 144 h
Protocol: Thrips tabaci (Onion Thrips): Feeding/Contact Activity
Sunflower leaf discs were placed on agar in 24-well microtiter plates and sprayed with aqueous test solutions prepared from 10′000 ppm DMSO stock solutions. After drying the leaf discs were infested with a thrips population of mixed ages. The samples were assessed for mortality 6 days after infestation.

[8] = application rate 200 ppm, maize sprouts sprayed, L2 larvae, assessed 4 days after infestation, read-out: mortality
[9] = application rate 200 ppm, soybean leaves sprayed, N2 nymphs, assessed 5 days after infestation, read-out: mortality
[10] = application rate 200 ppm, sunflower leaf discs sprayed, aphid population of mixed ages, assessed 6 days after infestation, read-out: mortality
[11] = application rate 200 ppm, artificial diet treated by pipetting, L2 larvae, assessed 5 days after infestation, read-out: mortality
[12] = application rate 200 ppm, cotton leaf discs sprayed, L1 larvae, assessed 3 days after infestation, read-out: mortality
[13] = application rate 200 ppm, bean leaf discs sprayed, mite population of mixed ages, assessed 8 days after infestation
[14] = application rate 200 ppm, sunflower leaf discs sprayed, thrips population of mixed ages, assessed 6 days after infestation, read-out: mortality

Measured: mortality at 200 ppm

CCC(=O)N(C(=O)c1cc(-c2cnn(-c3c(OC(F)F)c(C(F)(F)C(F)(F)F)nn3C)c2)cnc1Cl)C1(C#N)CC1 [Compound 20, 2-chloro-N-(1-cyanocyclopropyl)-5-[1-[4-(difluoromethoxy)-2-methyl-5-(1,1,2,2,2-pentafluoroethyl)pyrazol-3-yl]pyrazol-4-yl]-N-propanoyl-pyridine-3-carboxamide]
≥ 80%: [1]; [8] | [2]; [9] | [3]; [10] | [4]; [11] | [5]; [12] | [6]; [13] | [7]; [14]

COC(=O)N(C(=O)c1cc(-c2cnn(-c3c(OC(F)F)c(C(F)(F)C(F)(F)F)nn3C)c2)cnc1Cl)C1(C#N)CC1 [Compound 17, methyl N-[2-chloro-5-[1-[4-(difluoromethoxy)-2-methyl-5-(1,1,2,2,2-pentafluoroethyl)pyrazol-3-yl]pyrazol-4-yl]pyridine-3-carbonyl]-N-(1-cyanocyclopropyl)carbamate]
≥ 80%: [1] | [2]; in Glycine max | [3] | [4] | [5] | [6] | [7]

Cn1nc(C(F)(F)C(F)(F)F)c(OC(F)F)c1-n1cc(-c2ccc(Cl)c(C(=O)N(CC#N)C3(C#N)CC3)c2)cn1 [Compound 3, 2-chloro-N-(1-cyanocyclopropyl)-N-(cyanomethyl)-5-[1-[4-(difluoromethoxy)-2-methyl-5-(1,1,2,2,2-pentafluoroethyl)pyrazol-3-yl]pyrazol-4-yl]benzamide]
≥ 80%: [1]; [8] | [2]; [9] | [3]; [10] | [4]; [11] | [5]; [12] | [6]; [13] | [7]; [14]

COCN(C(=O)c1cc(-c2cnn(-c3c(OC(F)F)c(C(F)(F)C(F)(F)F)nn3C)c2)ccc1Cl)C1(C#N)CC1 [Compound 1, 2-chloro-N-(1-cyanocyclopropyl)-5-[1-[4-(difluoromethoxy)-2-methyl-5-(1,1,2,2,2-pentafluoroethyl)pyrazol-3-yl]pyrazol-4-yl]-N-(methoxymethyl)benzamide]
≥ 80%: [1]; [8] | [2]; [9] | [3]; [10] | [4]; [11] | [5]; [12] | [6]; [13] | [7]; [14]
